Drawing on patent US8623859B2, “Bradykinin B1 antagonists” (Evotec AG, priority 2008, dated 2014), this text covers IC50 for 25 compounds.

pIC50: −log10 of the molar value. Counter-ions that a name gives are not always drawn.

A word on the pIC50: it is the negative decadic logarithm of the IC50, by convention in mol/L.

In this test the target is T1, human B1 (Homo sapiens, UniProt P46663).
T1 construct: host or cells: CHO-K1
T1 sequence (P46663 1-353): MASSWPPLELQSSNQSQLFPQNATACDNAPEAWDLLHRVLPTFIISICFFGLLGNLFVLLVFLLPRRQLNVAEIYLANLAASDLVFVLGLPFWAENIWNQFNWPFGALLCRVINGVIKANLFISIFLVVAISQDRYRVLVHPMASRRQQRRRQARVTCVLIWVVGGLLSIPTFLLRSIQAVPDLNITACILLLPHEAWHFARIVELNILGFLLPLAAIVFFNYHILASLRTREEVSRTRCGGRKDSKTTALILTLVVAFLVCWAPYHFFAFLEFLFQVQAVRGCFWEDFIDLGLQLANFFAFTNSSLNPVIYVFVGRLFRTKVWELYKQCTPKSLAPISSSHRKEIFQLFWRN
Briefly: Calcium flux assay for Bradykinin B1 antagonist, CHO-K1 cell line expressing human B1. Format: cell-based. Conditions: CHO-K1 cells expressing human B1, agonist Lys-(Des-Arg)-Bradykinin, read-out: Potency (IC50 value against human B1). An outline of the steps: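 CHO-K1 cells expressing human B1, loaded with 5 μM Fluo-4AM (2 h, 37° C) in HEPES buffer pH 7.4 with probenecid and 0.1% BSA, were preincubated 30 min at 25° C with compound (8 concentrations, triplicate, 1% DMSO) before B1 agonist addition. Ca2+ fluorescence monitored at 538 nm; background-normalized integrated values plotted against log antagonist concentration.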
In general terms: Calcium flux is commonly read through the fluorescence of an indicator in the cells.
Regarding `COc1cc(C)c(S(=O)(=O)N(C)Cc2noc(C(=O)NCCc3ccc(C4=NCCN4)cc3)n2)c(C)c1` [Ex 64, N-{2-[4-(4,5-dihydro-1H-imidazol-2-yl)phenyl]ethyl}-3-({[(4-methoxy-2,6-dimethylphenyl)sulfonyl](methyl)amino}methyl)-1,2,4-oxadiazole-5-carboxamide], the pIC50 was more than 8.00.
For the compound `COc1cc(C)c(S(=O)(=O)N(C)Cc2cc(C(=O)N3CCN(C4CCN(C)CC4)CC3)no2)c(C)c1` [Ex 65, 4-Methoxy-N,2,6-trimethyl-N-[(3-{[4-(1-methylpiperidin-4-yl)piperazin-1-yl]carbonyl}isoxazol-5-yl)methyl]benzenesulfonamide], the pIC50 was 6.00 to 7.00.
For `COc1cc(C)c(S(=O)(=O)N(C)Cc2nc(C(=O)N3CCN(C4CCN(C)CC4)CC3)co2)c(C)c1` [Ex 66, 4-Methoxy-N,2,6-trimethyl-N-[(4-{[4-(1-methylpiperidin-4-yl)piperazin-1-yl]carbonyl}-1,3-oxazol-2-yl)methyl]benzenesulfonamide] the value was 7.00 to 8.00; for `COc1cc(C)c(S(=O)(=O)N(C)Cc2nc(C(=O)NCCc3ccc(C4=NCCN4)cc3)co2)c(C)c1` [Ex 67, N-{2-[4-(4,5-dihydro-1H-imidazol-2-yl)phenyl]ethyl}-2-({[(4-methoxy-2,6-dimethylphenyl)sulfonyl](methyl)amino}methyl)-1,3-oxazole-4-carboxamide], more than 8.00; for `COc1cc(C)c(S(=O)(=O)N(C)Cc2nc(C(=O)NCc3ccc(C4=NCCN4)cc3)co2)c(C)c1` [Ex 68, N-[4-(4,5-dihydro-1H-imidazol-2-yl)benzyl]-2-({[(4-methoxy-2,6-dimethylphenyl)sulfonyl](methyl)amino}methyl)-1,3-oxazole-4-carboxamide], 6.00 to 7.00.
In the case of `COc1cc(C)c(S(=O)(=O)N(C)Cc2nc(C(=O)N(C)CCc3ccc(C4=NCCN4)cc3)co2)c(C)c1` [Ex 69, N-{2-[4-(4,5-dihydro-1H-imidazol-2-yl)phenyl]ethyl}-2-({[(4-methoxy-2,6-dimethylphenyl)sulfonyl](methyl)amino}methyl)-N-methyl-1,3-oxazole-4-carboxamide], the negative-log IC50 (pIC50) was more than 8.00.
For `COc1cc(C)c(S(=O)(=O)N(C)Cc2nc(C(=O)N(C)Cc3ccc(C4=NCCN4)cc3)co2)c(C)c1` [Ex 70, N-[4-(4,5-dihydro-1H-imidazol-2-yl)benzyl]-2-({[(4-methoxy-2,6-dimethylphenyl)sulfonyl](methyl)amino}methyl)-N-methyl-1,3-oxazole-4-carboxamide] the value was more than 8.00; for `COc1cc(C)c(S(=O)(=O)N(C)Cc2nc(C(=O)N(C)Cc3ccc(CN4CCCC4)cc3)co2)c(C)c1` [Ex 71, 2({[(4-Methoxy-2,6dimethylphenyl)sulfonyl](methyl)amino}methyl)-N-methyl-N-[4-(pyrrolidin-1-ylmethyl)benzyl]-1,3-oxazole-4-carboxamide], more than 8.00.
The same measure for `COc1cc(C)c(S(=O)(=O)N(C)Cc2nc(C(=O)NCc3ccc(CN4CCCC4)cc3)co2)c(C)c1` [Ex 72, 2-({[(4-Methoxy-2,6dimethylphenyl)sulfonyl](methyl)amino}methyl)-N-[4-(pyrrolidin-1-ylmethyl)benzyl]-1,3-oxazole-4-carboxamide]: 7.00 to 8.00; for `COc1cc(C)c(S(=O)(=O)N(C)Cc2nc(C(=O)N(C)Cc3cccc(CN4CCCC4)c3)co2)c(C)c1` [Ex 73, 2-({[(4-Methoxy-2,6-dimethylphenyl)sulfonyl](methyl)amino}methyl)-N-methyl-N-[3-(pyrrolidin-1-ylmethyl)benzyl]-1,3-oxazole-4-carboxamide]: more than 8.00.
For the compound `COc1cc(C)c(S(=O)(=O)N(C)Cc2nc(C(=O)NCc3cccc(CN4CCCC4)c3)co2)c(C)c1` [Ex 74, 2-({[(4-Methoxy-2,6-dimethylphenyl)sulfonyl](methyl)amino}methyl)-N-[3-(pyrrolidin-1-ylmethyl)benzyl]-1,3-oxazole-4-carboxamide], the negative-log IC50 (pIC50) was more than 8.00.
The same measure for `COc1cc(C)c(S(=O)(=O)N(Cc2nc(C(=O)N(C)Cc3ccc(CN4CCCC4)cc3)co2)C2CC2)c(C)c1` [Ex 75, 2-({Cyclopropyl[(4-methoxy-2,6-dimethylphenyl)sulfonyl]amino}methyl)-N-methyl-N-[4-(pyrrolidin-1-ylmethyl)benzyl]-1,3-oxazole-4-carboxamide]: more than 8.00; for `COc1cc(C)c(S(=O)(=O)N(Cc2nc(C(=O)NCc3ccc(CN4CCCC4)cc3)co2)C2CC2)c(C)c1` [Ex 76, 2-({Cyclopropyl[(4-methoxy-2,6-dimethylphenyl)sulfonyl]amino}methyl)-N-[4-(pyrrolidin-1-ylmethyl)benzyl]-1,3-oxazole-4-carboxamide]: more than 8.00.
The same measure for `COc1cc(C)c(S(=O)(=O)N(Cc2nc(C(=O)N(C)Cc3cccc(CN4CCCC4)c3)co2)C2CC2)c(C)c1` [Ex 77, 2-({Cyclopropyl[(4-methoxy-2,6-dimethylphenyl)sulfonyl]amino}methyl)-N-methyl-N-[3-(pyrrolidin-1-ylmethyl)benzyl]-1,3-oxazole-4-carboxamide]: more than 8.00; for `COc1cc(C)c(S(=O)(=O)N(Cc2nc(C(=O)NCc3cccc(CN4CCCC4)c3)co2)C2CC2)c(C)c1` [Ex 78, 2-({Cyclopropyl[(4-methoxy-2,6-dimethylphenyl)sulfonyl]amino}methyl)-N-[3-(pyrrolidin-1-ylmethyl)benzyl]-1,3-oxazole-4-carboxamide]: more than 8.00; for `COc1cc(C)c(S(=O)(=O)N(Cc2nc(C(=O)N(C)CCc3ccc(C4=NCCN4)cc3)co2)C2CC2)c(C)c1` [Ex 79, 2-({Cyclopropyl[(4-methoxy-2,6-dimethylphenyl)sulfonyl]amino}methyl)-N-{2-[4-(4,5-dihydro-1H-imidazol-2-yl)phenyl]ethyl}-N-methyl-1,3-oxazole-4-carboxamide]: more than 8.00.
For `COc1cc(C)c(S(=O)(=O)N(C)Cc2nc(C(=O)N(C)CCc3ccc(C4=NCCN4)cc3)cs2)c(C)c1` [Ex 80, N-{2-[4-(4,5-dihydro-1H-imidazol-2-yl)phenyl]ethyl}-2-({[(4-methoxy-2,6-dimethylphenyl)sulfonyl](methyl)amino}methyl)-N-methyl-1,3-thiazole-4-carboxamide] the value was 6.00 to 7.00.
With `COc1cc(C)c(S(=O)(=O)N(C)Cc2nc(C(=O)N(C)Cc3ccc(C4=NCCN4)cc3)cs2)c(C)c1` [Ex 81, N-[4-(4,5-dihydro-1H-imidazol-2-yl)benzyl]-2-({[(4-methoxy-2,6-dimethylphenyl)sulfonyl](methyl)amino}methyl)-N-methyl-1,3-thiazole-4-carboxamide], the pIC50 is 6.00 to 7.00.
The same measure for `COc1cc(C)c(S(=O)(=O)N(Cc2cc(C(=O)NCc3ccc(C4=NCCN4)cc3)co2)C2CC2)c(C)c1` [Ex 82, 5-({cyclopropyl[(4-methoxy-2,6-dimethylphenyl)sulfonyl]amino}methyl)-N-[4-(4,5-dihydro-1H-imidazol-2-yl)benzyl]furan-3-carboxamide trifluoroacetate]: 6.00 to 7.00; for `COc1cc(C)c(S(=O)(=O)N(Cc2cc(C(=O)N(C)Cc3ccc(C4=NCCN4)cc3)co2)C2CC2)c(C)c1` [Ex 83, 5-({cyclopropyl[(4-methoxy-2,6-dimethylphenyl)sulfonyl]amino}methyl)-N-[4-(4,5-dihydro-1H-imidazol-2-yl)benzyl]-N-methylfuran-3-carboxamide trifluoroacetate]: 7.00 to 8.00.
In the case of `COc1cc(C)c(S(=O)(=O)N(Cc2cc(C(=O)N(C)CCc3ccc(C4=NCCN4)cc3)co2)C2CC2)c(C)c1` [Ex 84, 5-({cyclopropyl[(4-methoxy-2,6-dimethylphenyl)sulfonyl]amino}methyl)-N-{2-[4-(4,5-dihydro-1H-imidazol-2-yl)phenyl]ethyl}-N-methylfuran-3-carboxamide trifluoroacetate], the negative logarithm of the IC50 (pIC50) is more than 8.00.
For `COc1cc(C)c(S(=O)(=O)N(C)C(C)c2cc(C(=O)NCCc3ccc(C4=NCCN4)cc3)co2)c(C)c1` (stereo not shown) [Ex 85, N-{2-[4-(4,5-dihydro-1H-imidazol-2-yl)phenyl]ethyl}-5-(1-{[(4-methoxy-2,6-dimethylphenyl)sulfonyl](methyl)amino}ethyl)furan-3-carboxamide trifluoroacetamide] the value was 6.00 to 7.00.
The same measure for `COc1cc(C)c(S(=O)(=O)N(C)Cc2cc(C(=O)NCCc3ccc(C4=NCCN4)cc3)co2)c(CO)c1` [Ex 86, N-{2-[4-(4,5-Dihydro-1H-imidazol-2-yl)phenyl]ethyl}-5-{[{[2-(hydroxymethyl)-4-methoxy-6-methylphenyl]sulfonyl}(methyl)amino]methyl}furan-3-carboxamide trifluoroacetate]: 6.00 to 7.00; for `Cc1cc(O)cc(C)c1S(=O)(=O)N(C)Cc1cc(C(=O)N(C)CCc2ccc(C3=NCCN3)cc2)co1` [Ex 87, N-{2-[4-(4,5-Dihydro-1H-imidazol-2-yl)phenyl]ethyl}-5-({[(4-hydroxy-2,6-dimethylphenyl)sulfonyl](methyl)amino}methyl)-N-methylfuran-3-carboxamide, trifluoroacetate]: 7.00 to 8.00.
The same measure for `COc1cc(C)c(S(=O)(=O)N(C)Cc2cc(C(=O)N(C)Cc3ccc(C(C)N4CCCC4)cc3)co2)c(C)c1` (stereo not shown) [Ex 88, 5-({[(4-Methoxy-2,6-dimethylphenyl)sulfonyl](methyl)amino}methyl)-N-methyl-N-[4-(1-pyrrolidin-1-ylethyl)benzyl]furan-3-carboxamide trifluoroacetate]: 6.00 to 7.00.
